Key:
[1] = humans, compared with MK-4 (Sato 2012); cited from earlier work
[2] = in vivo; cited from earlier work
[3] = system: patient suffering from MS; details: daily 300 mg bupropion over four weeks, MRI after three months, MS patient with depression; cited from earlier work
MS patients = details: cited from earlier work
PC12D cells = details: cell cultures (Tsang 2002); cited from earlier work
EAE rat model = details: cited from earlier work
MS-patients = experiment: Treatment of MS patients with the triple combination (case reports, MS score); format: in vivo, human; details: Example 2: one MS patient, own words
Excerpt: The scoring ranges from zero to ten points and is the sum of the physical score and cognitive score. Attributing half points was allowed to better cover the full scale and subtlety of MS symptoms.

For CC(C)=CCC/C(C)=C/CC/C(C)=C/CC/C(C)=C/CC/C(C)=C/CC/C(C)=C/CC/C(C)=C/CC1=C(C)C(=O)c2ccccc2C1=O [MK-7], the “bioavailability after oral intake” value [1] is given as “much higher bioavailability after oral intake than MK-4”.
In the case of CC1=CC(=O)c2ccccc2C1=O [VK3, 2-methylnaphthalene-1,4-dione], the “reason for discontinued sales as prescription drug” value [2] is listed as “adverse effects and liver toxicity”.
In the case of CC(NC(C)(C)C)C(=O)c1cccc(Cl)c1 (centres unmarked) [bupropion], the “MRI analysis of lesions” value [3] is listed as “rather showed a reduction of the lesions than a progression”.
For C=C1CC[C@H](O)C/C1=C/C=C1\CCC[C@]2(C)[C@@H]([C@H](C)CCCC(C)C)CC[C@@H]12 [vitamin D3, cholecalciferol], the “correlation with treatment effect in MS” value (MS patients; meta-analysis (Steinwart 2018), weekly dosage of 20,000 IU D3) is listed as “did not provide any relevant correlation with treatment effect”.
For CC1=C(C/C=C(\C)CCC[C@H](C)CCC[C@H](C)CCCC(C)C)C(=O)c2ccccc2C1=O [vitamin K1, phylloquinone], the “nerve growth factor-mediated neurite outgrowth” value (PC12D cells) is given as “promoting activity”.
In the case of Vitamin D, the “EDSS scores and annual relapse rate (ARR)” value (MS patients; meta-analysis Zheng 2018) is listed as “no therapeutic effect” and the “recurrence of relapse, worsening of disability (EDSS), MRI lesions” value (MS patients; review Jagannath 2018) is listed as “no effect”.
In the case of menaquinone [VK2], the “efficacy in EAE” value (EAE rat model; given after the onset of EAE) is given as “not effective”, the “severity of EAE” value (EAE rat model; prophylactic intraperitoneal administration, 62.5 mg/kg/d) is given as “ameliorated the severity of EAE” and the “nerve growth factor-mediated neurite outgrowth” value (PC12D cells) is given as “promoting activity”.
With “ocrelizumab: humanised monoclonal antibody that targets the CD20 marker on B lymphocytes” the “patient's comparison of ocrelizumab with the combination therapy” value (MS-patients) was “could not achieve what this combination therapy could”.

From patent US20220323380A1, “DRUG COMBINATION FOR USE IN THE TREATMENT OF INFLAMMATORY DISEASES” (ISANAS AG, priority 2019, published 2022)
